Key:
[1] = test system: subjects; assay: Sensory evaluation of strength of taste of sample solutions by subjects; assay type: in vivo, human; conditions: for strength of sensory sweetness: subjects who showed a change in salivary gland response in Example 2
Description: Each subject is held in a resting state, keeps water in the mouth such that the water spreads throughout the mouth for 30 seconds, then swallows the water, and then is held in a resting state for 60 seconds. Subsequently, the subject keeps a sample in the mouth to carefully taste the sample in the mouth for 30 seconds, then swallows the sample, and then is held in a resting state for 60 seconds again. Subsequently, the subject keeps water in the mouth again such that the water spreads throughout the mouth for 30 seconds, then swallows the water, and then is held in a resting state for 60 seconds. Subsequently, the subject keeps another sample in the mouth to carefully taste the sample in the mouth for 30 seconds, then swallows the sample, and then is held in a resting state for 60 seconds again. Thus, drinking of water and drinking of a sample are alternately repeated (FIG. 2). A sample can be evaluated at about four or five different concentrations in each experiment. […] Samples at previously selected four or five different concentrations are sequentially evaluated by the above-described procedure. During the evaluation of the sample, including the times of drinking and resting, the blood flow is measured, and the change therein is recorded. In addition, sensory evaluation is performed during the tasting of the sample in the mouth for 30 seconds. After completion of the evaluation at a series of four or five concentrations, the strength of flavor of the sample is concluded lastly to fill the sensory evaluation sheet (FIG. 3).
The sensory evaluation was performed in accordance with the evaluation questionnaire shown in FIG. 3 for the strength of taste as 0: tasteless, 3: weak, 6: moderate, 9: strong, and 12: very strong.
The samples of four different concentrations were subjected to sensory evaluation from a lower concentration of ethylmaltol to a higher concentration sequentially in accordance with the time schedule shown in FIG. 2 as in Example 1.

[2] = test system: salivary gland; assay: Salivary gland response: change in blood flow (signal strength) at a periphery of the temple of the forehead, measured with an optical topography system; assay type: in vivo, human
Description: Each subject is held in a resting state, keeps water in the mouth such that the water spreads throughout the mouth for 30 seconds, then swallows the water, and then is held in a resting state for 60 seconds. Subsequently, the subject keeps a sample in the mouth to carefully taste the sample in the mouth for 30 seconds, then swallows the sample, and then is held in a resting state for 60 seconds again. Subsequently, the subject keeps water in the mouth again such that the water spreads throughout the mouth for 30 seconds, then swallows the water, and then is held in a resting state for 60 seconds. Subsequently, the subject keeps another sample in the mouth to carefully taste the sample in the mouth for 30 seconds, then swallows the sample, and then is held in a resting state for 60 seconds again. Thus, drinking of water and drinking of a sample are alternately repeated (FIG. 2). A sample can be evaluated at about four or five different concentrations in each experiment. […] Samples at previously selected four or five different concentrations are sequentially evaluated by the above-described procedure. During the evaluation of the sample, including the times of drinking and resting, the blood flow is measured, and the change therein is recorded. In addition, sensory evaluation is performed during the tasting of the sample in the mouth for 30 seconds. After completion of the evaluation at a series of four or five concentrations, the strength of flavor of the sample is concluded lastly to fill the sensory evaluation sheet (FIG. 3). When a sample is drunk in accordance with the above-described procedure, the blood flow at a periphery of the temple of the forehead gradually increases after putting the sample into the mouth, and the signal strength reaches the maximum within about 5 to 30 seconds. Subsequently, the signal strength gradually decreases and reaches the original level within about 60 seconds after putting the sample into the mouth. Accordingly, a value obtained by subtracting the “minimum” blood flow within about 15 seconds after the moment of putting a sample into the mouth from the “maximum” blood flow during from about 5 to 30 seconds after putting the sample into the mouth at a specific site, i.e., the response strength of a change in blood flow, is defined as a change in signal strength at the periphery of the temple of the forehead. […] A probe (FIG. 1) having a large number of sensors connected to an optical topography system body was set to the head of each subject, and then each sample was given to the subjects sequentially, followed by measurement. In accordance with the time schedule shown in FIG. 2, after resting, water was first given, and then a sample was given to aggressively evaluate the flavor. The order of drinking aqueous solutions of one kind of a taste substance given to the subjects was from a lower concentration to a higher concentration sequentially. (1) FIG. 4 is a graph illustrating the amount of typical change in oxygenated hemoglobin with time when water was put in the mouth and drunk and then a sample was put in the mouth and drunk, measured with an optical topography system at a periphery of the temple of the forehead (channel 52). […] The response strength was determined by that “when the time at which a sample was drunk is defined as a time of 0 second, (the maximum blood flow within 5 to 30 seconds)−(the minimum blood flow within 0 to 15 seconds)”.

[3] = 0, 1, 5, 10 ppm added to 4% aqueous sugar solution

SMILES: OCCc1ccccc1 [2-phenylethyl alcohol]
- strength of sensory sweetness [1, 3]: No increase

SMILES: CC(C)=CCCC(C)=CC=O [citral]
- response measured at the periphery of the temple of the forehead compared with 0.1% aqueous citric acid solution alone ([2]; 0, 1, 5, 10 ppm added to 0.1% aqueous citric acid solution, subjects showing a change in salivary gland response to a known flavor-improving agent, FIG. 10): enhanced
- strength of sensory acidity ([1]; 0, 1, 5, 10 ppm added to 0.1% aqueous citric acid solution, subjects showing a change in salivary gland response to a known flavor-improving agent): increased with the concentration
- strength of sensory sweetness [1, 3]: No increase

SMILES: CCc1occc(=O)c1O [ethylmaltol, reference compound]
- signal strength compared with 4% aqueous sugar solution alone ([2]; 0, 1, 5, 10 ppm added to 4% aqueous sugar solution, eight arbitrarily selected subjects, FIGS. 6 and 7): An enhancement in signal strength by addition of ethylmaltol was confirmed in six subjects
- strength of sensual sweetness ([1]; 0, 1, 5, 10 ppm added to 4% aqueous sugar solution, eight arbitrarily selected subjects): increased with the amount of ethylmaltol

SMILES: COc1ccc(C=CC=O)cc1 [p-methoxycinnamaldehyde]
- response measured at the periphery of the temple of the forehead compared with 4% aqueous sugar solution alone ([2]; 0, 1, 5, 10 ppm added to 4% aqueous sugar solution, subjects who showed a change in salivary gland response in Example 2, FIGS. 8 and 9): enhanced
- strength of sensory sweetness [1, 3]: increased with the concentration

SMILES: OC[C@H]1O[C@@](CO)(O[C@H]2O[C@H](CO)[C@@H](O)[C@H](O)[C@H]2O)[C@@H](O)[C@@H]1O [sugar]
- response strength measured at a periphery of the temple of the forehead, compared with water ([2]; aqueous sugar solution 0 to 8%, eight arbitrarily selected subjects): larger than that to water in all subjects
- dependence of response strength on sample concentration and sweetness strength ([2]; sugar concentration range 0 to 8%, eight subjects): an enhancement of the response strength depending on the sample concentration and the sweetness strength was observed
